Assay results as given in ChEMBL document CHEMBL5357033, “Discovery of Diverse Sesquiterpenoids from Crossiella cryophila through Genome Mining and NMR Tracking” (J Nat Prod, 2024).

Key:
[1] = test system: Staphylococcus capitis; assay: Antimicrobial activity against Staphylococcus capitis W7 assessed as reduction in microbial growth by broth microdilution method; assay type: functional
[2] = test system: Micrococcus luteus; assay: Antimicrobial activity against Micrococcus luteus ATCC 4685 assessed as reduction in microbial growth by broth microdilution method; assay type: functional
[3] = test system: Staphylococcus aureus; assay: Antimicrobial activity against methicillin resistant Staphylococcus aureus assessed as reduction in microbial growth by broth microdilution method; assay type: functional
[4] = test system: Enterococcus; assay: Antimicrobial activity against Vancomycin-resistant Enterococci assessed as reduction in microbial growth by broth microdilution method; assay type: functional
[5] = test system: Staphylococcus aureus; assay: Antimicrobial activity against Staphylococcus aureus LV-B1 assessed as reduction in microbial growth by broth microdilution method; assay type: functional
[6] = test system: Bacillus subtilis; assay: Antimicrobial activity against Bacillus subtilis ATCC 6051 assessed as reduction in microbial growth by broth microdilution method; assay type: functional
[7] = test system: Klebsiella pneumoniae; assay: Antimicrobial activity against Klebsiella pneumoniae W5 assessed as reduction in microbial growth by broth microdilution method; assay type: functional
[8] = test system: Escherichia coli; assay: Antimicrobial activity against Escherichia coli CGMCC 1.3344 assessed as reduction in microbial growth by broth microdilution method; assay type: functional
[9] = test system: Shigella sonnei; assay: Antimicrobial activity against Shigella sonnei ZD12 assessed as reduction in microbial growth by broth microdilution method; assay type: functional
[10] = test system: Paracidovorax avenae; assay: Antimicrobial activity against Acidovorax avenae ATCC 19307 assessed as reduction in microbial growth by broth microdilution method; assay type: functional
[11] = test system: Pseudomonas syringae; assay: Antimicrobial activity against Pseudomonas syringae ATCC-BAA-2502 assessed as reduction in microbial growth by broth microdilution method; assay type: functional
[12] = test system: Xanthomonas oryzae; assay: Antimicrobial activity against Xanthomonas oryzae ATCC 35933 assessed as reduction in microbial growth by broth microdilution method; assay type: functional
[13] = test system: A549; assay: Anticancer activity against human A549 cells assessed as reduction in cell viability at 40 uM measured after 48 hrs by CCK-8 method relative to control; assay type: functional
[14] = test system: HepG2; assay: Anticancer activity against human HepG2 cells assessed as reduction in cell viability at 40 uM measured after 48 hrs by CCK-8 method relative to control; assay type: functional
[15] = test system: SW480; assay: Anticancer activity against human SW480 cells assessed as reduction in cell viability at 40 uM measured after 48 hrs by CCK-8 method relative to control; assay type: functional
[16] = test system: MDA-MB-231; assay: Anticancer activity against human MDA-MB-231 cells assessed as reduction in cell viability at 40 uM measured after 48 hrs by CCK-8 method relative to control; assay type: functional
[17] = test system: MCF7; assay: Anticancer activity against human MCF7 cells assessed as reduction in cell viability at 40 uM measured after 48 hrs by CCK-8 method relative to control; assay type: functional
[18] = test system: RAW264.7; assay: Cytotoxicity against mouse RAW264.7 cells measured after 24hrs by CCK-8 method relative to control; assay type: toxicity, cell-based; set-up: concentration or dose not given beside the values; conditions: raw264.7, 24 h
[19] = test system: RAW264.7; assay: Antiinflammatory activity in mouse RAW264.7 assessed as reduction in LPS-induced NO production incubated for 24 hrs by Griess method relative to control; assay type: functional; set-up: concentration or dose not given beside the values

Compound | MIC [1] [µg/mL] | MIC [2] [µg/mL] | MIC [3] [µg/mL] | MIC [4] [µg/mL] | MIC [5] [µg/mL] | MIC [6] [µg/mL] | MIC [7] [µg/mL] | MIC [8] [µg/mL] | MIC [9] [µg/mL] | MIC [10] [µg/mL] | MIC [11] [µg/mL] | MIC [12] [µg/mL] | Activity [13] [%] | Activity [14] [%] | Activity [15] [%] | Activity [16] [%] | Activity [17] [%] | Activity [18] [%] | Activity [19] [%]
CC1=C[C@H]2[C@H](C(C)C)CC[C@@](C)(O)[C@H]2C[C@H]1O | > 128 | > 128 | > 128 | > 128 | > 128 | > 128 | > 128 | > 128 | > 128 | > 128 | > 128 | > 128 | 5.64 | -5.25 | 4.58 | -8.69 | 12.99 | 87.41 | -6.33
CC1=C[C@@H]2[C@@H](C(C)C)CC[C@@](C)(O)[C@@H]2CC1 | > 128 | > 128 | > 128 | > 128 | > 128 | > 128 | > 128 | > 128 | > 128 | > 128 | > 128 | > 128 | 12.06 | 4.12 | 6.82 | 32.06 | 18.49 | 90.3 | -4.95
CC1(C)[C@H]2[C@@H]1CC[C@@]1(C)[C@H](O)CC[C@](O)(CO)[C@H]21 | > 128 | > 128 | > 128 | > 128 | > 128 | > 128 | > 128 | > 128 | > 128 | > 128 | > 128 | > 128 | 0.34 | 3.99 | 7.24 | 27.39 | 11.1 | 81.69 | -3.05
C[C@H]1C[C@H](O)[C@@H]2[C@H]3[C@H]1OC(C)(C)[C@@H]3CC[C@@]2(C)O | > 128 | > 128 | > 128 | > 128 | > 128 | > 128 | > 128 | > 128 | > 128 | > 128 | > 128 | > 128 | 0.07 | -8.63 | -5.32 | 1.66 | 8.24 | 84.88 | 0.67
CC1=C[C@@H]2[C@@H](C(C)C)CC[C@@](C)(O)[C@@H]2CC1=O | > 128 | > 128 | > 128 | > 128 | > 128 | > 128 | > 128 | > 128 | > 128 | > 128 | > 128 | > 128 | 8.55 | -9.79 | -22.26 | 20.55 | 13.45 | 82.62 | -11.3
CN(C)[C@@H]1C(O)=C(C(N)=O)C(=O)[C@@]2(O)C(O)=C3C(=O)c4c(O)cccc4[C@@](C)(O)[C@H]3C[C@@H]12 [TETRACYCLINE] | 4 | 2 | 4 | 2 | 0.5 | 2 | > 128 | 2 | 8 | 4 | > 128 | 8 | – | – | – | – | – | – | –
C/C1=C\CC/C(C=O)=C\[C@H]2[C@H](C[C@H]1O)C2(C)C | > 128 | > 128 | > 128 | > 128 | > 128 | > 128 | > 128 | > 128 | > 128 | > 128 | > 128 | > 128 | -2.39 | -8.84 | -28.68 | -11.44 | 1.32 | 89.61 | 1.33
CC1(C)[C@H]2/C=C(/C=O)CC[C@@H]3O[C@@]3(C)CC[C@@H]21 | > 128 | > 128 | > 128 | > 128 | > 128 | > 128 | > 128 | > 128 | > 128 | > 128 | > 128 | > 128 | 2.4 | -4.51 | -21.6 | -2.33 | 16.05 | 81.51 | -2.46
C[C@H]1CC[C@@H]2[C@H]3[C@H]1OC(C)(C)[C@@H]3CC[C@@]2(C)O (relative stereo) | > 128 | > 128 | > 128 | > 128 | > 128 | > 128 | > 128 | > 128 | > 128 | > 128 | > 128 | > 128 | 12.03 | -8.24 | -11.92 | 4.18 | 14.7 | 94.77 | -7.88
C/C1=C\CC/C(CO)=C\[C@H]2[C@H](C[C@H]1O)C2(C)C | > 128 | > 128 | > 128 | > 128 | > 128 | > 128 | > 128 | > 128 | > 128 | > 128 | > 128 | > 128 | 7.59 | 6.04 | 46.36 | 6.53 | 15.37 | 83.59 | -1.42
CC1=C[C@@H]2[C@@H](C(C)C)CC[C@@](C)(O)[C@@H]2C[C@@H]1O | > 128 | > 128 | > 128 | > 128 | > 128 | > 128 | > 128 | > 128 | > 128 | > 128 | > 128 | > 128 | 0.28 | -1.38 | -7.85 | -7.21 | 6.01 | 82.75 | -1.33
C[C@@H]1C(=O)C[C@@H]2[C@H]3[C@H]1OC(C)(C)[C@H]3CC[C@@]2(C)O | > 128 | > 128 | > 128 | > 128 | > 128 | > 128 | > 128 | > 128 | > 128 | > 128 | > 128 | > 128 | 0.67 | -1.81 | 13.67 | -3.76 | 9.07 | 91.87 | -1.87
C[C@H]1CC[C@@H](O)[C@]2(C)CC[C@@H](C(C)(C)O)[C@H](O)[C@@H]12 | > 128 | > 128 | > 128 | > 128 | > 128 | > 128 | > 128 | > 128 | > 128 | > 128 | > 128 | > 128 | 0.97 | -2.3 | 10.33 | -2.4 | 5.53 | 88.18 | 3.3
CC1(C)[C@H]2/C=C(/CO)CC[C@@H]3O[C@@]3(C)CC[C@@H]21 | > 128 | > 128 | > 128 | > 128 | > 128 | > 128 | > 128 | > 128 | > 128 | > 128 | > 128 | > 128 | 13 | -11.68 | -7.55 | 4.47 | 14.53 | 8.25 | -6.95
